# Source: patent US20220289753A1, “SHP2 INHIBITORS” (IRBM S.P.A., priority 2019, published 2022)
# What was measured:
# [1] = test system: ERK phosphorylation in KYSE-520 cells; assay: Phospho-ERK cellular assay (Advanced phospho-ERK1/2 (Thr202/Tyr204) TR-FRET kit); assay type: cell-based; settings: Homo sapiens, KYSE-520, 2 h, KYSE-520 cells, 2 h at 37° C., TR-FRET; read-out: pERK IC50
# Protocol: Phospho-ERK Cellular Assay
# ERK phosphorylation was detected using the “Advanced phospho-ERK1/2 (Thr202/Tyr204)” TR-FRET kit (Cisbio, Cat #64AERPEG/H), following the manufacturer reagents and instructions. […] After an overnight incubation, cells were treated with DMSO serial diluted compounds and incubated for 2 h at 37° C. After incubation, 2 μL/well of 4× Lysis Buffer (Cisbio 64KL1FDF), were added and incubated with cells for 30 min on gentle shaking. Finally, lysates were added with 2 μL/well of Eu cryptate (donor) and D2 (acceptor) conjugated antibodies (as provided by the Cisbio kit #64AERPEG/H) diluted 1:100 in Detection Buffer (as provided by the Cisbio kit #64AERPEG/H). Plates were then sealed and incubated at room temperature in the dark. After an overnight incubation, the TR-FRET signal was detected on a suitable reader (Envision, PerkinElmer). The lower the TR-FRET signal the higher the higher the SHP2 inhibition in cells. […] The percentage activity is fitted against the compound dilutions with a four-parameter logistic regression. The inflection point (i.e. the concentration at which half-maximal inhibition is achieved) is the IC50.
# [2] = target: T1, SHP-2 enzyme (Met1-Leu525) (Homo sapiens, UniProt Q06124); assay: SHP2 inhibition enzymatic assay (DiFMUP substrate, IRS1 peptide activation); assay type: biochemical; settings: SHP2 wt; activated by 500 nM IRS1 peptide; 75 μM DiFMUP substrate
# T1 construct: synthetized by Origene, Met1-Leu525, cat #TP750155; purchased Origene TP750155
# T1 sequence (Q06124 1-525): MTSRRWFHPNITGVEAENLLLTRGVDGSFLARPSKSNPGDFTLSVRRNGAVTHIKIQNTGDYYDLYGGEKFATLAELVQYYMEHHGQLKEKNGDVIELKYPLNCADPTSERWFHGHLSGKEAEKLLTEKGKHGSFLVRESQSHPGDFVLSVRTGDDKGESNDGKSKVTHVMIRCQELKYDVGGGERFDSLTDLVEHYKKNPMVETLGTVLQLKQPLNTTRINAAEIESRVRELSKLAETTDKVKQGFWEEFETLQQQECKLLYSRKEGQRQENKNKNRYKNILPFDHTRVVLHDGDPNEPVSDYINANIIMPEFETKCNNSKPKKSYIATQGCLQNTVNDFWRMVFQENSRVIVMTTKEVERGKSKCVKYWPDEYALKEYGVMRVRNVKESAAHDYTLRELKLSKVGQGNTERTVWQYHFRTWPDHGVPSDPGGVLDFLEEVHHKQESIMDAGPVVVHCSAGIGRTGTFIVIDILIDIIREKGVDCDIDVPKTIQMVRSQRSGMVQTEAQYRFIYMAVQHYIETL
# Procedure, shortened: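 SHP-2 (Met1-Leu525, 0.5 nM final) preincubated 30 min with compounds and IRS1 activating peptide in HEPES pH 7.2 buffer with NaCl, KCl, EDTA, tween-20, 5 mM DTT. DiFMUP then added for 30 min at room temperature and fluorescence read. IC50 from four-parameter logistic fit of % inhibition.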
IC50 [1],IC50 [2],Structure (SMILES)
< 1000 nM,< 500 nM,"Nc1nccc(Sc2cnc3[nH]c(N4CCC5(CC4)Cc4cc(F)c(F)cc4[C@H]5N)nc3n2)c1Cl [Example 188, (S)-1′-(5-((2-amino-3-chloropyridin-4-yl)thio)-1H-imidazo[4,5-b]pyrazin-2-yl)-5,6-difluoro-1,3-dihydrospiro[indene-2,4′-piperidin]-1-amine]"
1000 to 5000 nM,< 500 nM,"N[C@@H]1c2ccccc2CC12CCN(c1nc3nc(Sc4cccnc4OCc4ncco4)cnc3[nH]1)CC2 [Example 235, (S)-1′-(5-((2-(oxazol-2-ylmethoxy)pyridin-3-yl)thio)-1H-imidazo[4,5-b]pyrazin-2-yl)-1,3-dihydrospiro[indene-2,4′-piperidin]-1-amine]"
< 1000 nM,< 500 nM,"Cn1cc2c(Sc3cnc4[nH]c(N5CCC6(CC5)Cc5ccccc5[C@H]6N)nc4n3)ccnc2n1 [Example 255, (S)-1′-(5-((2-methyl-2H-pyrazolo[3,4-b]pyridin-4-yl)thio)-1H-imidazo[4,5-b]pyrazin-2-yl)-1,3-dihydrospiro[indene-2,4′-piperidin]-1-amine]"
< 1000 nM,< 500 nM,"CNc1nccc(Sc2cnc3[nH]c(N4CCC5(CC4)Cc4ncccc4[C@H]5N)nc3n2)c1C(F)(F)F [Example 264, (5S)-1′-[5-[2-(methylamino)-3-(trifluoromethyl)pyridin-4-yl]sulfanyl-1H-imidazo[4,5-b]pyrazin-2-yl]spiro[5,7-dihydrocyclopenta[b]pyridine-6,4′-piperidine]-5-amine]"
< 1000 nM,< 500 nM,"N[C@@H]1c2ccccc2CC12CCN(c1nc3ncc(Sc4cccc5nccnc45)nc3[nH]1)CC2 [Example 179, (S)-1′-(5-(quinoxalin-5-ylthio)-1H-imidazo[4,5-b]pyrazin-2-yl)-1,3-dihydrospiro[indene-2,4′-piperidin]-1-amine]"
< 1000 nM,< 500 nM,"N[C@@H]1c2ccccc2CC12CCN(c1nc3nc(Sc4cccc(Cl)c4Cl)c(Cl)nc3[nH]1)CC2 [Example 259, (S)-1′-(6-chloro-5-((2,3-dichlorophenyl)thio)-1H-imidazo[4,5-b]pyrazin-2-yl)-1,3-dihydrospiro[indene-2,4′-piperidin]-1-amine]"
> 5000 nM,< 500 nM,"Nc1nccc(Sc2cnc3[nH]c(N4CCC5(CC4)Cc4ccc(N6CCOCC6)cc4[C@H]5N)nc3n2)c1Cl [Example 223, (S)-1′-(5-((2-amino-3-chloropyridin-4-yl)thio)-1H-imidazo[4,5-b]pyrazin-2-yl)-6-morpholino-1,3-dihydrospiro[indene-2,4′-piperidin]-1-amine]"
< 1000 nM,< 500 nM,"COc1cnccc1Sc1cnc2nc(N3CCC4(CC3)Cc3ccccc3[C@H]4N)[nH]c2n1 [Example 177, (S)-1′-(6-((3-methoxypyridin-4-yl)thio)-1H-imidazo[4,5-b]pyrazin-2-yl)-1,3-dihydrospiro[indene-2,4′-piperidin]-1-amine]"
> 5000 nM,< 500 nM,"N[C@@H]1c2ccccc2CC12CCN(c1nc3nc(Sc4cccnc4N4CCCC4)cnc3[nH]1)CC2 [Example 225, (S)-1′-(5-((2-(pyrrolidin-1-yl)pyridin-3-yl)thio)-1H-imidazo[4,5-b]pyrazin-2-yl)-1,3-dihydrospiro[indene-2,4′-piperidin]-1-amine]"
1000 to 5000 nM,< 500 nM,"N[C@@H]1c2ccccc2CC12CCN(c1nc3ncc(Sc4cccc5[nH]c(=O)oc45)nc3[nH]1)CC2 [Example 178, (S)-7-((2-(1-amino-1,3-dihydrospiro[indene-2,4′-piperidin]-1′-yl)-1H-imidazo[4,5-b]pyrazin-6-yl)thio)benzo[d]oxazol-2(3H)-one]"
< 1000 nM,< 500 nM,"Nc1nccc(Sc2cnc3[nH]c(N4CCC5(CC4)Cc4ccc(C6CC6)cc4[C@H]5N)nc3n2)c1Cl [Example 257, (S)-1′-(5-((2-amino-3-chloropyridin-4-yl)thio)-1H-imidazo[4,5-b]pyrazin-2-yl)-6-cyclopropyl-1,3-dihydrospiro[indene-2,4′-piperidin]-1-amine]"

# More lines, now with the values behind:
Structure (SMILES),IC50 [1],IC50 [2]
"COc1nccc(Sc2cnc3[nH]c(N4CCC5(CC4)Cc4ncccc4[C@H]5N)nc3n2)c1Cl [Example 151, (S)-1′-(5-((3-chloro-2-methoxypyridin-4-yl)thio)-1H-imidazo[4,5-b]pyrazin-2-yl)-5,7-dihydrospiro[cyclopenta[b]pyridine-6,4′-piperidin]-5-amine]",> 5000 nM,< 500 nM
"N[C@@H]1c2ccccc2CC12CCN(c1nc3ncc(Sc4ccnc5ccccc45)nc3[nH]1)CC2 [Example 176, (S)-1′-(6-(quinolin-4-ylthio)-1H-imidazo[4,5-b]pyrazin-2-yl)-1,3-dihydrospiro[indene-2,4′-piperidin]-1-amine]",< 1000 nM,< 500 nM
N[C@@H]1c2ccccc2CC12CCN(c1nc3nc(Sc4cccc5c4OCC(=O)N5)cnc3[nH]1)CC2 [Example 157],> 5000 nM,< 500 nM
"CN(C)c1nccc(Sc2cnc3[nH]c(N4CCC5(CC4)Cc4ncccc4[C@H]5N)nc3n2)c1Cl [Example 154, (S)-1′-(5-((3-chloro-2-(dimethylamino)pyridin-4-yl)thio)-1H-imidazo[4,5-b]pyrazin-2-yl)-5,7-dihydrospiro[cyclopenta[b]pyridine-6,4′-piperidin]-5-amine]",> 5000 nM,< 500 nM
"CNc1nccc(Sc2cnc3[nH]c(N4CCC5(CC4)Cc4ccccc4[C@H]5N)nc3n2)c1Cl [Example 130, (S)-1′-(6-((3-chloro-2-(methylamino)pyridin-4-yl)thio)-1H-imidazo[4,5-b]pyrazin-2-yl)-1,3-dihydrospiro[indene-2,4′-piperidin]-1-amine]",< 1000 nM,< 500 nM
"N[C@@H]1CCCC12CCN(c1nc3ncc(Sc4cccc(Cl)c4Cl)nc3[nH]1)CC2 [Example 3, (R)-8-(6-((2,3-dichlorophenyl)thio)-1H-imidazo[4,5-b]pyrazin-2-yl)-8-azaspiro[4.5]decan-1-amine]",1000 to 5000 nM,< 500 nM
"Nc1nccc(Sc2cnc3nc(N4CCC5(CC4)Cc4ccc(F)cc4[C@H]5N)[nH]c3n2)c1Cl [Example 175, (S)-1′-(6-((2-amino-3-chloropyridin-4-yl)thio)-1H-imidazo[4,5-b]pyrazin-2-yl)-6-fluoro-1,3-dihydrospiro[indene-2,4′-piperidin]-1-amine]",< 1000 nM,< 500 nM
"N[C@@H]1c2cccnc2CC12CCN(c1nc3ncc(Sc4cccc(Cl)c4Cl)nc3[nH]1)CC2 [Example 172, (S)-1′-(5-((2,3-dichlorophenyl)thio)-1H-imidazo[4,5-b]pyrazin-2-yl)-5,7-dihydrospiro[cyclopenta[b]pyridine-6,4′-piperidin]-5-amine]",< 1000 nM,< 500 nM
"CNc1nccc(Sc2cnc3[nH]c(N4CCC5(CC4)Cc4ncccc4[C@H]5N)nc3n2)c1Cl [Example 146, (S)-1′-(5-((3-chloro-2-(methylamino)pyridin-4-yl)thio)-1H-imidazo[4,5-b]pyrazin-2-yl)-5,7-dihydrospiro[cyclopenta[b]pyridine-6,4′-piperidin]-5-amine]",< 1000 nM,< 500 nM
"N[C@@H]1c2ccccc2CC12CCN(c1nc3nc(Sc4cccc5c4C(F)(F)C(=O)N5)cnc3[nH]1)CC2 [Example 162, (S)-4-((2-(1-amino-1,3-dihydrospiro[indene-2,4′-piperidin]-1′-yl)-1H-imidazo[4,5-b]pyrazin-5-yl)thio)-3,3-difluoroindolin-2-one]",< 1000 nM,< 500 nM
"CC1(N)CCN(c2nc3nc(Sc4ccccc4Br)cnc3[nH]2)CC1 [Example 37, 1-(5-((2-bromophenyl)thio)-1H-imidazo[4,5-b]pyrazin-2-yl)-4-methylpiperidin-4-amine]",1000 to 5000 nM,< 500 nM
"N[C@@H]1c2ccccc2OC12CCN(c1nc3nc(Sc4ccnc(NC5CC5)c4Cl)cnc3[nH]1)CC2 [Example 174, (R)-1′-(5-((3-chloro-2-(cyclopropylamino)pyridin-4-yl)thio)-1H-imidazo[4,5-b]pyrazin-2-yl)-3H-spiro[benzofuran-2,4′-piperidin]-3-amine]",< 1000 nM,< 500 nM
